The record followed here is BindingDB's records for doi:10.1038/nsb921 (Mahidol University, 2003).

Each structure is given as a SMILES string.

Holding throughout (assay): Antimalarial Testing In Vitro (IC50) and Measurement of Inhibition Constant (Ki)
What all share (conditions): pH 7; 25 °C

In experiment [1] the target is Bifunctional dihydrofolate reductase-thymidylate synthase [N51I,C59R,S108N,I164L] (Plasmodium falciparum (isolate K1 / Thailand), UniProt Q8I1R6, C59R/I164L/N51I/S108N). As for the experimental part: (§1) The activity of pfDHFR-TS was determined spectrophotometrically using a UV-Vis spectrophotometer.
Bifunctional dihydrofolate reductase-thymidylate synthase [N51I,C59R,S108N,I164L], sequence (Q8I1R6 whole entry N51I/C59R/S108N/I164L): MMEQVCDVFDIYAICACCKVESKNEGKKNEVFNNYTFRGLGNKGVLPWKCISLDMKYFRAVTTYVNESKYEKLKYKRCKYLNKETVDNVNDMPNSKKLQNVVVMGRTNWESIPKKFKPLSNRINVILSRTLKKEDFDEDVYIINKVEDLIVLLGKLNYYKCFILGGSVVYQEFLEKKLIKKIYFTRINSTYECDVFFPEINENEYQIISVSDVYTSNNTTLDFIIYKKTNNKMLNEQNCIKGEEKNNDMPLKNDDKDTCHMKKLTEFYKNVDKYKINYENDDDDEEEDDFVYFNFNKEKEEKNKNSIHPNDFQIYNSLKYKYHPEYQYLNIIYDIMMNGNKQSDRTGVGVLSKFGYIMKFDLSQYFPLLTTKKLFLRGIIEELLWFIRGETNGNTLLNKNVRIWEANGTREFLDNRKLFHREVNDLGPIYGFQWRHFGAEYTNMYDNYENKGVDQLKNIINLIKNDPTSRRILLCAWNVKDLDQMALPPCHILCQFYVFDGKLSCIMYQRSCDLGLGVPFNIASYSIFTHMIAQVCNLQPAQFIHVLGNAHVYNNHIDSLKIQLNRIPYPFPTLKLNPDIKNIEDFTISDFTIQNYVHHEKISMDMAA
The target of experiment [2] is Bifunctional dihydrofolate reductase-thymidylate synthase (Plasmodium falciparum (isolate K1 / Thailand), UniProt Q8I1R6). Here is the method: as §1
Bifunctional dihydrofolate reductase-thymidylate synthase (Plasmodium falciparum (isolate K1 / Thailand), UniProt Q8I1R6), sequence (Q8I1R6 whole entry): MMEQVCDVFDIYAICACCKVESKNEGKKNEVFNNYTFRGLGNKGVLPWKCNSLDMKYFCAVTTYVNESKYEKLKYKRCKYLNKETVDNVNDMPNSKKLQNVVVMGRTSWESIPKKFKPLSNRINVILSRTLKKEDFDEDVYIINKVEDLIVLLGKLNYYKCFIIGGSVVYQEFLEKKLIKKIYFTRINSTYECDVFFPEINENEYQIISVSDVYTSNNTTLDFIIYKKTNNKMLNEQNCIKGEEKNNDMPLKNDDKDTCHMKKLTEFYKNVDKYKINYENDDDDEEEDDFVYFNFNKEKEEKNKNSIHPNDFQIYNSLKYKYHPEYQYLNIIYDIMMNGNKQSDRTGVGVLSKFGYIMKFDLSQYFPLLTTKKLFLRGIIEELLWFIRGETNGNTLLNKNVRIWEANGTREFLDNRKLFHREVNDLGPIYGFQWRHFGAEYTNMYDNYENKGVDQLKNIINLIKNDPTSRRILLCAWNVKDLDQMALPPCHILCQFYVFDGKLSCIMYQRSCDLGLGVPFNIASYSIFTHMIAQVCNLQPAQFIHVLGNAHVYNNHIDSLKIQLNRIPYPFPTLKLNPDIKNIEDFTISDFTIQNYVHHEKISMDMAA
Experiment [3] concerns the target Bifunctional dihydrofolate reductase-thymidylate synthase (Plasmodium falciparum (isolate K1 / Thailand), UniProt P13922). Here is the method:
as §1

Bifunctional dihydrofolate reductase-thymidylate synthase (Plasmodium falciparum (isolate K1 / Thailand), UniProt P13922), sequence (P13922 whole entry): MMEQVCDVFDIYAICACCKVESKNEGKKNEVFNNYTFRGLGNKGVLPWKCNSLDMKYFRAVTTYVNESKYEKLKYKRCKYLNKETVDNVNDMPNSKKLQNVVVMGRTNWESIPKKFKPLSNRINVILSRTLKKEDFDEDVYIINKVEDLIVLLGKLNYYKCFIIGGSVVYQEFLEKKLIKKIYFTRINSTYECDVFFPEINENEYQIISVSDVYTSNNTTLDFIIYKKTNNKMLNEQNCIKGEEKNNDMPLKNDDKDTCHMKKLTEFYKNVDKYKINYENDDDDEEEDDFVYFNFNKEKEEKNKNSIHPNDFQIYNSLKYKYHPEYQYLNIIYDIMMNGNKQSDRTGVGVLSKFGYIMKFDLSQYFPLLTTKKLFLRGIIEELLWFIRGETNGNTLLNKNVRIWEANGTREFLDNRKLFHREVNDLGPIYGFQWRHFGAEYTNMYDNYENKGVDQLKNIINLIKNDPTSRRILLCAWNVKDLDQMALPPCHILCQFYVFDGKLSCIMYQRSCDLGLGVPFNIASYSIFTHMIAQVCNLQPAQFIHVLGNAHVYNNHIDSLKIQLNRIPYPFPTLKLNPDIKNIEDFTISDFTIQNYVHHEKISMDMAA

As usually defined, the IC50 is the midpoint of a concentration-inhibition curve. Higher therefore signals weaker potency in that assay. What is called Ki is a dissociation constant, usually derived from enzyme kinetics or from competition with a known ligand. The low end stands for tighter binding, the high end for weaker binding. As for `CC1(C)N=C(N)N=C(N)N1OCCCOc1cc(Cl)c(Cl)cc1Cl` [6,6-dimethyl-1-[3-(2,4,5-trichlorophenoxy)propoxy]-1,6-dihydro-1,3,5-triazine-2,4-diamine], the values for the 50% inhibitory concentration (IC50) in experiment [1], in experiment [2] and in experiment [3] were 18 nM, 0.57 nM and 2.3 nM, respectively. Further, the Ki in experiment [1] was 0.037 nM; in experiment [2], 0.011 nM; in experiment [3], 0.02 nM.

Consider `CC1(C)N=C(N)N=C(N)N1c1ccc(Cl)cc1`, for which the half-inhibitory concentration (IC50) in experiment [1] was over 100000 nM; in experiment [2], 37 nM; in experiment [3], 2400 nM. For the same compound, the Ki in experiment [1] stood at 254 nM; in experiment [2], 0.3 nM; in experiment [3], 6.2 nM.
